Test results from US20150250864A1, “ANTI-CANCER VACCINES” (Board of Regents, The University of Texas System, priority 2012, published 2015).

Legend:
Assay type in all cases: cell-based, human
T cells in PBMCs [1] = experiment: IL-2 release by ELISA from PBMC stimulated with peptides or protein; settings: normal donors vs cancer patients
Text: (§1) FIG. 19. T cell stimulation by HERV-K peptides. Peptides (p73-76 and p18-135) or HERV-K SU fusion proteins were used to stimulate PBMC and evaluated in vitro for their ability to stimulate T cells in PBMCs from healthy subjects and/or cancer patients, based on Granzyme B (Top panel) and interlukin-2 (IL-2; bottom panel) release by ELISA. OD values of Granzyme B or IL-2 release were compared between normal donors (ND427478, ND329966, and ND341277) and cancer patients (BC243 and OC212).
(§2) Cancer patients were enrolled to evaluate HERV-K as a tumor associated antigen target. Patients provided written informed consent as part of an approved protocol (LAB04-0083) at MD Anderson Cancer Center prior to commencing the studies. […] HLA-A*02 expression in PBMCs obtained from cancer patients and healthy subjects was determined by flow cytometry with PE Mouse anti-human HLA-A2 mAb BB7.2 (BD Pharmingen; San Diego, Calif., USA). […] After 14 days of culture, the supernatants from cell culture media (PBMC pulsed with peptides or proteins) were harvested and tested for their ability to produce IFN-gamma or IL-2, and granzyme B release was also determined by enzyme-linked immunosorbent assay (ELISA) assay. […] Absorbance was measured after 10 min of incubation in the dark and the plate was read on a Wallac Victor 2 V Microplate Reader (PerkinElmer, Waltham, Mass.). […]

T cells in PBMCs [2] = experiment: Granzyme B release by ELISA from PBMC stimulated with peptides or protein; settings: breast cancer patient (BC243) vs 3 normal donors
Text: as §1, §2

T cells in PBMCs [3] = experiment: IFN-γ release by ELISA from PBMC stimulated with peptides or protein; settings: for IFN-γ release (OD values): stimulated PBMC, FIG. 21A
Text: FIG. 17. T cell stimulation by HERV-K peptides. Peptides (p73-76 and p18-135) or HERV-K SU fusion proteins were used to stimulate PBMC and evaluated in vitro for their ability to stimulate T cells in PBMCs from healthy subjects (ND1007083; left) and/or cancer patients (BC 243; right), based on interferon-γ(IFN-γ) release by ELISA. KLH peptide and GST protein were used as controls. Other negative controls included media only, DMSO, and PBS.
FIG. 18. T cell stimulation by HERV-K peptides. Peptides (p73-76: left; and p18-135: middle) or HERV-K SU fusion proteins (right) were used to stimulate PBMC and evaluated in vitro for their ability to stimulate T cells in PBMCs from healthy subjects and/or cancer patients (BC 243; middle), based on interferon-γ (IFN-γ) release by ELISA. OD values of interferon-γ (IFN-γ) release were compared between normal donors (ND447549, ND1001366, and ND1007083) and cancer patients (OC222, OC 210, OC212, and BC243). OC is ovarian cancer and BC is breast cancer
FIGS. 21A-C. T Cell Stimulation. 9 mer Peptides (HERVK-3, HERVK-4, HERVK-11, and HERVK-18; see Table 1), p73-76 and p18-135 (Table 1 178 and 179), or HERV-K SU fusion proteins were used to stimulate PBMC and evaluated in vitro for their ability to stimulate T cells in PBMCs from healthy subjects and/or cancer patients, based on IFN-γ and Granzyme B release by ELISA. (FIG. 21A) OD values of IFN-γ release were compared in a normal donor (ND291812). (FIG. 21B) OD values of IFN-γ release were compared between a normal donor (ND291817) and an ovarian cancer patient (OC153). (FIG. 21C) OD values of Granzyme B release were compared between a normal donor (ND291817) and an ovarian cancer patient (OC153). Each dot represents an individual clone. Negative controls measured release of effector molecules from cancer cells after treatment with supernatants obtained from PBMCs without stimulation with HERV-K peptides or protein; positive controls were stimulated with PMA/ONO.
Cancer patients were enrolled to evaluate HERV-K as a tumor associated antigen target. Patients provided written informed consent as part of an approved protocol (LAB04-0083) at MD Anderson Cancer Center prior to commencing the studies. Normal healthy donor control blood samples were obtained from Gulf Coast Regional Blood Center, Houston Tex. 40 mL of peripheral blood was obtained from each patient, and peripheral blood mononuclear cells (PBMCs) were isolated by density gradient centrifugation using Histopaque-1077 (Sigma-Aldrich; USA). HLA-A*02 expression in PBMCs obtained from cancer patients and healthy subjects was determined by flow cytometry with PE Mouse anti-human HLA-A2 mAb BB7.2 (BD Pharmingen; San Diego, Calif., USA). Mouse IgG2b was used as an isotype control. PBMCs (5×10^5 cells/well) from either healthy subjects or cancer patients were incubated with Peptide #18-135 ([…]; SEQ ID NO: 178), Peptide #73-76 ([…]; SEQ ID NO: 179) or KLH as control peptide) or proteins (HERV-K env SU protein or GST protein as control) at concentrations of 40 μg/mL in 96-well U-bottom microplates (BD; Franklin Lakes, N.J., USA) in 100 μL of T-cell medium (TCM), consisting of RPMI 1640 (Mediatech; Manassas, Va., USA), 10% human AB serum (Valley Biomedical, Winchester, USA), […] 2-mercaptoethanol, 100 IU/mL interleukin-2 (IL-2), and 0.1 mM MEM nonessential amino acid solution (Invitrogen; Grand Island, N.Y., USA). Half of the TCM was removed and replaced with fresh TCM containing peptides (20 μg/mL) on day 7. After 14 days of culture, the supernatants from cell culture media (PBMC pulsed with peptides or proteins) were harvested and tested for their ability to produce IFN-gamma or IL-2, and granzyme B release was also determined by enzyme-linked immunosorbent assay (ELISA) assay. In order to detect the secreted cytokine in this assay, high-binding plates were coated with 5 μg/ml anti-IFN-γ (Mabtech, Stockholm, Sweden) diluted in PBS buffer at 4° C. overnight. […]

[4] = test system: TIL obtained from melanoma patient; experiment: IFN-γ ELISPOT with TIL from melanoma patient
IVS cells = experiment: IFN-γ ELISPOT with IVS cells (DC pulsed once with HERV-K protein) against MAPs, 9-mer pools or single peptides; settings: donor 449731, IVS cells, FIG. 15C
Text: FIGS. 15A-C. ELISPOT was employed to determine the production of IFN-γ in twelve 15-mer small pools. (FIG. 15A) Numbers of spots detected in multiple pools are shown for a breast cancer patient diagnosed with IDC (Acc 30) or a patient diagnosed with teratoma (Acc 32). (FIG. 15B) Numbers of spots detected in multiple pools are shown for a patient diagnosed with left breast minute foci of sugg papillary lesion (967092) or IDC (Acc 31). SP 1-12 represents small peptide pools #1-12. Pool 0 contains no peptides (as control). (FIG. 15C) T cells obtained from PBMC stimulated once with HERV-K-specific pulsed homologous B cells were reactive with individual MAPs, pools of 9-mer peptides, or single 9-mer peptides. NP: no peptide control.
IVS were obtained from two donor pairs stimulated with DC pulsed once with HERV-K protein. After 7 days (1-week stimulation), IVS cells were used for ELISPOT with 15-mer peptides (FIGS. 15A-B) or MAPs including MAP73, MAP75-76, MAP82-93, MAP 92-93, and MAP95-96 or 9 mer peptide pools (#1 to 5, #5 to 10, #1 to 10, #12 to 17, #18 to 22) or single peptides (#3, #18, and #4.11; FIG. 15C). Candidate epitopes (#4 and #11) were further identified using IVS generated from DC obtained from cancer patients stimulated with HERV-K antigen in this study.

Sequence | IL-2 release (T cells in PBMCs [1]) | granzyme B release (T cells in PBMCs [2]) | IFN-γ release (T cells in PBMCs [3]; peripheral T cells from both healthy subjects (ND1007083) and cancer patients (BC 243)) | IFN-γ release (OD values) (T cells in PBMCs [3]) | recognition by TILs (IFN-γ ELISPOT) ([4]; TIL from a melanoma patient) | number of IFN-γ spots ([4]; TIL from melanoma patient specimens, FIG. 16A) | HERV-K specific T cell epitope (IFN-γ ELISPOT) (IVS cells) | IFN-γ release (T cells in PBMCs [3]; peripheral T cells from most cancer patients (OC222, OC210, OC212, BC 243))
IINLILILVCLFCLLLVCRCTQQLR [Peptide #18-135] | in normal donors to a greater extent than in cancer patients | to a greater extent than in 3 normal donors | induce IFN-γ release | Higher IFN-γ release |  |  |  | 
SQTITCENCRLLSCI [15-mer 73] |  |  |  |  | the single peptide in SP7 which was recognized by TILs | large number of spots |  | 
ILVCLFCLL [HERVK-11] |  |  |  | Higher IFN-γ release |  |  | HERV-K specific T cell epitopes | 
LILVCLFCL [HERVK-4] |  |  |  | Higher IFN-γ release |  |  | HERV-K specific T cell epitopes | 
SQTITCENCRLLSCIDSTFNWQHRILL [Peptide #73-76] | in normal donors to a greater extent than in cancer patients | to a greater extent than in 3 normal donors |  | Higher IFN-γ release |  |  |  | induce IFN-γ release
